This note sets out measurements from US20260001928A1 (CORTERIA PHARMACEUTICALS, priority 2022, published 2026).

For one experiment, the target named is T1, CFR1R receptor (Homo sapiens, UniProt P34998).
T1 construct: host or cells: CHO-K1 (clone 2)
T1 sequence (P34998 24-415): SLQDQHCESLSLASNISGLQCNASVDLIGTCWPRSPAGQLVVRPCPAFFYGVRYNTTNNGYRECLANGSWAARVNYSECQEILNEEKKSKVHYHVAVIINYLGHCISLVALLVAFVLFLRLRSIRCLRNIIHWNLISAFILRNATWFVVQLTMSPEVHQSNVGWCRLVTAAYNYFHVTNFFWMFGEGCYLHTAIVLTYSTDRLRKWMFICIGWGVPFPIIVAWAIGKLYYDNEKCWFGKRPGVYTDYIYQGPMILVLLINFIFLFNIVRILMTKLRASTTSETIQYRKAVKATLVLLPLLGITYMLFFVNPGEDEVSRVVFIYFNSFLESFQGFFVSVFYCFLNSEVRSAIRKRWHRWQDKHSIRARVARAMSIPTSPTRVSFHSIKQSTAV
Briefly: Activity at anti-target CFR1R receptor, cAMP assay in CRF1R-overexpression CHO-K1 cells. It is filed as cell-based. Conditions: 100% = Sauvagine at 100 nM; for EC50: cAMP. In a few lines: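 Grow clone 2 to near confluence at 37° C. under 5% CO2 in F12 (Hams) with 10% FBS and G418, harvest, and freeze in 10% DMSO. Thaw and plate at 4000 cells/well. Then proceed per the TeloHAEC method, normalising to Sauvagine 100 nM as maximum.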

The target in the next experiment is T2, human CRF2a receptor (Homo sapiens, UniProt Q13324).
T2 construct: expressed in transfected cells; host or cells: TeloHEAC cells
T2 sequence (Q13324 1-411): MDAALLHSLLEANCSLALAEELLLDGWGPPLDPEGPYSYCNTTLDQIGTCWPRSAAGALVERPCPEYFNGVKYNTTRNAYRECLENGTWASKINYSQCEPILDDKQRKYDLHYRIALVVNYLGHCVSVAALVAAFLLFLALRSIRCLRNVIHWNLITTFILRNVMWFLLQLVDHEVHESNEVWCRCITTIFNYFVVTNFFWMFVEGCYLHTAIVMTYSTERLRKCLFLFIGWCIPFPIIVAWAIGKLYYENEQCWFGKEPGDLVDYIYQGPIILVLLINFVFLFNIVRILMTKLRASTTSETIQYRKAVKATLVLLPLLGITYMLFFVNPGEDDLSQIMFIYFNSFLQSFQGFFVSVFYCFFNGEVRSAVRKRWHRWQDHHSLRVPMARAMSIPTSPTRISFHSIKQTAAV
The experiment is described as follows: Activity at human CRF2a receptor, cAMP functional assay in TeloHEAC cells. Format: cell-based. Conditions: TeloHEAC cells stably expressing human CRF2a receptor, relative to urocortin 2 (100 nM = 100%). Summed up: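 TeloHEAC cells stably expressing human CRF2a (10000 cells/well, suspended in HBSS/20 mM HEPES with 2 mM IBMX) were exposed to compounds for 30 min at 37 °C. cAMP was read as the 665/620 nm fluorescence ratio after 1 h at room temperature. EC50 was derived relative to 100 nM urocortin 2, set as 100%.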

*1 amine or outer side, *2 acyl side, *3 side chain or, on linkers, in order; H or OH if unused. Where a SMILES comes first, the peptide text is derived from it. Side-chain parts run from the residue outwards. [ ]: non-standard residue; d: D form. The star is where a group is joined. C18 diacid = O=C(O)CCCCCCCCCCCCCCCCC(=O)*; C16 diacid = O=C(O)CCCCCCCCCCCCCCC(=O)*; γGlu = O=C(O)[C@H](CCC(=O)[*:2])N[*:1]; C12 diacid = O=C(O)CCCCCCCCCCC(=O)*; NMeI = CC[C@H](C)[C@H](NC)C(=O)O; αMeK = C[C@](N)(CCCCN)C(=O)O; Dap = NC[C@H](N)C(=O)O; Pentanoyl = CCCCC(=O)*; AEEA = NCCOCCOCC(=O)O; Aib = CC(C)(N)C(=O)O

Consider `CCCCC(=O)N[C@H](C(=O)N[C@@H](CC(C)C)C(=O)N[C@@H](CO)C(=O)N[C@@H](CC(C)C)C(=O)N[C@@H](CC(=O)O)C(=O)N[C@@H](C(=O)N1CCC[C@H]1C(=O)N[C@H](C(=O)N[C@@H](CCCCN)C(=O)N[C@@H](CC(C)C)C(=O)N[C@@H](CCCCNC(=O)CC[C@H](NC(=O)CCCCCCCCCCC(=O)O)C(=O)O)C(=O)N[C@@H](CCCCN)C(=O)N[C@H](C(=O)N[C@@H](CC(C)C)C(=O)N[C@@H](CC(C)C)C(=O)N[C@@H](CCC(=O)O)C(=O)N[C@@H](CCC(N)=O)C(=O)N[C@@H](CCC(=O)O)C(=O)N[C@@H](CCCCN)C(=O)N[C@@H](CCC(N)=O)C(=O)N[C@@H](CCCCN)C(=O)N[C@@H](CCCCN)C(=O)N[C@@H](CCC(N)=O)C(=O)N[C@@H](CCCNC(=N)N)C(=O)N[C@@H](CCC(=O)O)C(=O)N[C@@H](CCC(N)=O)C(=O)N[C@@H](C)C(=O)N[C@@H](CCC(=O)O)C(=O)N[C@H](C(=O)N[C@@H](CC(N)=O)C(=O)NC(C)(C)C(=O)N[C@@H](CCC(N)=O)C(=O)N[C@H](C(=O)N[C@@H](CC(C)C)C(=O)N[C@@H](C)C(=O)N[C@@H](CCC(N)=O)C(=O)N[C@H](C(N)=O)C(C)C)[C@@H](C)CC)[C@@H](C)O)[C@@H](C)CC)[C@@H](C)CC)C(C)C)C(C)C` [compound 185] (Pentanoyl-VLSLD[dV]PIKLK([γGlu-C12 diacid])KILLEQEKQKKQREQAETN[Aib]QILAQV-NH2), for which, at CFR1R receptor, the “Emax (% I)” value amounted to 2 % I and the 50% effective concentration (EC50) was over 250 nM. A half-maximal response at human CRF2a receptor (EC50) required 3.54 nM.

As for `CC[C@H](C)[C@H](NC(C)=O)C(=O)N[C@H](C(=O)N[C@@H](CC(C)C)C(=O)N[C@@H](CO)C(=O)N[C@@H](CC(C)C)C(=O)N[C@@H](CC(=O)O)C(=O)N[C@@H](C(=O)N1CCC[C@H]1C(=O)N[C@H](C(=O)N[C@@H](CCCCN)C(=O)N[C@@H](CC(C)C)C(=O)N[C@@H](CCCCNC(=O)COCCOCCNC(=O)COCCOCCNC(=O)CC[C@H](NC(=O)CCCCCCCCCCCCCCCCC(=O)O)C(=O)O)C(=O)N[C@@H](CCCCN)C(=O)N[C@H](C(=O)N[C@@H](CC(C)C)C(=O)N[C@@H](CC(C)C)C(=O)N[C@@H](CCC(=O)O)C(=O)N[C@@H](CCC(N)=O)C(=O)N[C@@H](CCC(=O)O)C(=O)N[C@@H](CCCCN)C(=O)N[C@@H](CCC(N)=O)C(=O)N[C@@H](CCCCN)C(=O)N[C@@H](CCCCN)C(=O)N[C@@H](CCC(N)=O)C(=O)N[C@@H](CCCNC(=N)N)C(=O)N[C@@H](CCC(=O)O)C(=O)N[C@@H](CCC(N)=O)C(=O)N[C@@H](C)C(=O)N[C@@H](CCC(=O)O)C(=O)N[C@H](C(=O)N[C@@H](CC(N)=O)C(=O)N[C@@](C)(CCCCN)C(=O)N[C@@H](CCC(N)=O)C(=O)N[C@H](C(=O)N[C@@H](CC(C)C)C(=O)N[C@@H](C)C(=O)N[C@@H](CCC(N)=O)C(=O)N[C@H](C(N)=O)C(C)C)[C@@H](C)CC)[C@@H](C)O)[C@@H](C)CC)[C@@H](C)CC)C(C)C)C(C)C` [compound 106] (Ac-IVLSLD[dV]PIKLK([AEEA-AEEA-γGlu-C18 diacid])KILLEQEKQKKQREQAETN[αMeK]QILAQV-NH2), the “Emax (% I)” value at CFR1R receptor was 6 % I. The EC50 at CFR1R receptor was over 250 nM; at human CRF2a receptor, 0.35 nM.

For the molecule `CC[C@H](C)[C@H](NC(C)=O)C(=O)N[C@H](C(=O)N[C@@H](CC(C)C)C(=O)N[C@@H](CO)C(=O)N[C@@H](CC(C)C)C(=O)N[C@@H](CC(=O)O)C(=O)N[C@@H](C(=O)N1CCC[C@H]1C(=O)N[C@H](C(=O)N[C@@H](CCCCN)C(=O)N[C@@H](CC(C)C)C(=O)N[C@@H](CCCCNC(=O)CC[C@H](NC(=O)CCCCCCCCCCCCCCC(=O)O)C(=O)O)C(=O)N[C@@H](CCC(N)=O)C(=O)N[C@H](C(=O)N[C@@H](CC(C)C)C(=O)N[C@@H](CC(C)C)C(=O)N[C@@H](CCCCN)C(=O)N[C@@H](CCC(N)=O)C(=O)N[C@@H](CCC(=O)O)C(=O)N[C@@H](CCCNC(=N)N)C(=O)N[C@@H](CCC(N)=O)C(=O)N[C@@H](CCCCN)C(=O)N[C@@H](CCCCN)C(=O)N[C@@H](CCC(N)=O)C(=O)N[C@@H](CCCNC(=N)N)C(=O)N[C@@H](CCC(=O)O)C(=O)N[C@@H](CCC(N)=O)C(=O)N[C@@H](C)C(=O)N[C@@H](CCC(=O)O)C(=O)N[C@@H](CCCCN)C(=O)N[C@@H](CC(N)=O)C(=O)NC(C)(C)C(=O)N[C@@H](CCC(N)=O)C(=O)N[C@H](C(=O)N[C@@H](CC(C)C)C(=O)N[C@@H](CCC(=O)O)C(=O)N[C@@H](CCC(N)=O)C(=O)N[C@H](C(N)=O)C(C)C)[C@@H](C)CC)[C@@H](C)CC)[C@@H](C)CC)C(C)C)C(C)C` [compound 16] (Ac-IVLSLD[dV]PIKLK([γGlu-C16 diacid])QILLKQERQKKQREQAEKN[Aib]QILEQV-NH2), the “Emax (% I)” value on CFR1R receptor was 47 % I. On human CRF2a receptor, this molecule showed an EC50 of 0.13 nM.

Consider `CC[C@H](C)[C@H](NC)C(=O)N[C@H](C(=O)N[C@@H](CC(C)C)C(=O)N[C@@H](CO)C(=O)N[C@@H](CC(C)C)C(=O)N[C@@H](CC(=O)O)C(=O)N[C@@H](C(=O)N1CCC[C@H]1C(=O)N[C@H](C(=O)N[C@@H](CCCCN)C(=O)N[C@@H](CC(C)C)C(=O)N[C@@H](CCCCNC(=O)CC[C@H](NC(=O)CCCCCCCCCCCCCCC(=O)O)C(=O)O)C(=O)N[C@@H](CCCCN)C(=O)N[C@H](C(=O)N[C@@H](CC(C)C)C(=O)N[C@@H](CC(C)C)C(=O)N[C@@H](CCC(=O)O)C(=O)N[C@@H](CCC(N)=O)C(=O)N[C@@H](CCC(=O)O)C(=O)N[C@@H](CCCCN)C(=O)N[C@@H](CCC(N)=O)C(=O)N[C@@H](CCCCN)C(=O)N[C@@H](CCCCN)C(=O)N[C@@H](CCC(N)=O)C(=O)N[C@@H](CCCNC(=N)N)C(=O)N[C@@H](CCC(=O)O)C(=O)N[C@@H](CCC(N)=O)C(=O)N[C@@H](C)C(=O)N[C@@H](CCC(=O)O)C(=O)N[C@H](C(=O)N[C@@H](CC(N)=O)C(=O)N[C@@H](CN)C(=O)N[C@@H](CCC(N)=O)C(=O)N[C@H](C(=O)N[C@@H](CC(C)C)C(=O)N[C@@H](C)C(=O)N[C@@H](CCC(N)=O)C(=O)N[C@H](C(N)=O)C(C)C)[C@@H](C)CC)[C@@H](C)O)[C@@H](C)CC)[C@@H](C)CC)C(C)C)C(C)C` [compound 70] (H-[NMeI]VLSLD[dV]PIKLK([γGlu-C16 diacid])KILLEQEKQKKQREQAETN[Dap]QILAQV-NH2), for which, at CFR1R receptor, the “Emax (% I)” value was 0 % I and the EC50 was over 250 nM. At human CRF2a receptor, this molecule yielded an EC50 of 0.17 nM.

`CCCCC(=O)N[C@H](C(=O)N[C@@H](CC(C)C)C(=O)N[C@@H](CO)C(=O)N[C@@H](CC(C)C)C(=O)N[C@@H](CC(=O)O)C(=O)N[C@@H](C(=O)N1CCC[C@H]1C(=O)N[C@H](C(=O)N[C@@H](CCCCN)C(=O)N[C@@H](CC(C)C)C(=O)N[C@@H](CCCCNC(=O)CC[C@H](NC(=O)CCCCCCCCCCCCCCC(=O)O)C(=O)O)C(=O)N[C@@H](CCC(N)=O)C(=O)NC(C)(C)C(=O)N[C@@H](CC(C)C)C(=O)N[C@@H](CC(C)C)C(=O)N[C@@H](CCCCN)C(=O)N[C@@H](CCC(N)=O)C(=O)N[C@@H](CCC(=O)O)C(=O)N[C@@H](CCCNC(=N)N)C(=O)N[C@@H](CCC(N)=O)C(=O)N[C@@H](CCCCN)C(=O)N[C@@H](CCCCN)C(=O)N[C@@H](CCC(N)=O)C(=O)N[C@@H](CCCNC(=N)N)C(=O)N[C@@H](CCC(=O)O)C(=O)N[C@@H](CCC(N)=O)C(=O)N[C@@H](C)C(=O)N[C@@H](CCC(=O)O)C(=O)N[C@@H](CCCCN)C(=O)N[C@@H](CC(N)=O)C(=O)N[C@H](C(=O)N[C@@H](CCC(N)=O)C(=O)N[C@H](C(=O)N[C@@H](CC(C)C)C(=O)N[C@@H](CCC(=O)O)C(=O)N[C@@H](CCC(N)=O)C(=O)N[C@H](C(N)=O)C(C)C)[C@@H](C)CC)C(C)C)[C@@H](C)CC)C(C)C)C(C)C` [compound 22] (Pentanoyl-VLSLD[dV]PIKLK([γGlu-C16 diacid])Q[Aib]LLKQERQKKQREQAEKNVQILEQV-NH2): on CFR1R receptor, the “Emax (% I)” value is 3 % I and the EC50 is over 250 nM. The molecule also showed an EC50 at human CRF2a receptor of 4.44 nM.
